Reference: US6734182B2, “Aryl sulfonamides and sulfamide derivatives and uses thereof” (Synaptic Pharmaceutical Corporation, priority 1995, dated 2004)

Key:
[1] = target: T1, human Y1 receptor (Homo sapiens, UniProt P25929); experiment: Radioligand binding to cloned human Y1 receptor (125I-PYY); conditions: cloned human Y1, stably transfected cells, read-out: Binding Affinity (K1 (nM) vs. 125I-PYY) Human Receptor Y1
T1 construct: expressed in transfected cells
T1 sequence (P25929 1-384): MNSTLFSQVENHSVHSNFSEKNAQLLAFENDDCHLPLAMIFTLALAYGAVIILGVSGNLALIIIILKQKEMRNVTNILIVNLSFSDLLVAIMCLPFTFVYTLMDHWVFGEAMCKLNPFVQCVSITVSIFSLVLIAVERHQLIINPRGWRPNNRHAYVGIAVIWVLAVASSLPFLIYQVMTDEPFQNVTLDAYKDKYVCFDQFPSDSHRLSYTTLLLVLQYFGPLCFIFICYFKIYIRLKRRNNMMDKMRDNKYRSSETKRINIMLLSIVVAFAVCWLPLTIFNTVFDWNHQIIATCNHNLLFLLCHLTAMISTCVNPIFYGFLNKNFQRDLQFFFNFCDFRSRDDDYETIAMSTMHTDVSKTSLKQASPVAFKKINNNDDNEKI
Experimental: (§1) Membranes were harvested from COS-7 cells 48 hours after transient transfection. […] Large particles and debris were cleared by low speed centrifugation (200 x g, 5 min, 4° C.). […] Membranes were held on ice for up to one hour and used fresh, or flash-frozen and stored in liquid nitrogen.
(§2) Incubations were terminated by filtration over Whatman GF/C filters (pre-coated with 1% polyethyleneimine and air-dried before use), followed by washing with 5 mL of ice-cold binding buffer.

[2] = target: T2, human Y5 receptor (Homo sapiens, UniProt Q15761); experiment: Radioligand binding to cloned human Y5 receptor (125I-PYY); conditions: cloned human Y5, stably transfected cells, read-out: Binding Affinity (K1 (nM) vs. 125I-PYY) Human Receptor Y5
T2 construct: expressed in transfected cells
T2 sequence (Q15761 1-445): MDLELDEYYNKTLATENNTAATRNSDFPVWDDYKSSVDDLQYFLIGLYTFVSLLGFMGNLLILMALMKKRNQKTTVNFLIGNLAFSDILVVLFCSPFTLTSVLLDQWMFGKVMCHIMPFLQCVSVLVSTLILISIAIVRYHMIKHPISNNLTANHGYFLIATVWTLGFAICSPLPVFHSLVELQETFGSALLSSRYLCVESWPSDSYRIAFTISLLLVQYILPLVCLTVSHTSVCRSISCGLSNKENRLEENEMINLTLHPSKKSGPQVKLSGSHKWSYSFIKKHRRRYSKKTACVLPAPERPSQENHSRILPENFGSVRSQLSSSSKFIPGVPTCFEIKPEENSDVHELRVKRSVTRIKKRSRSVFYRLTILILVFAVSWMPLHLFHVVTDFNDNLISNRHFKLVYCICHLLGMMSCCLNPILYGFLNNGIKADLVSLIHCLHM
Experimental: as §1, §2

[3] = target: T3, cloned human Y5 receptor (Homo sapiens, UniProt Q15761); experiment: Functional assay: block of NPY-induced inhibition of cAMP accumulation in forskolin-stimulated LM(tk-) cells (radioimmunoassay of cAMP); format: cell-based; conditions: antagonism of NPY-induced inhibition of cAMP accumulation, forskolin-stimulated LM(tk-) cells with human Y5; at least three experiments
T3 construct: expressed in transfected cells
T3 sequence (Q15761 1-445): T2 sequence (Q15761 1-445)
Experimental: LM(tk−) cells stably transfected with the human Y5 receptor were routinely converted from an adherent monolayer to a viable suspension. […] The cell suspension was maintained in a shaking incubator at 37° C., 5% CO2 for 24 hours.
Stably transfected cells were seeded into 96-well microtiter plates and cultured until confluent.
The ability of the compounds to antagonize the Y-type receptors is reported as the Kb. […] Results shown are representative of at least three indepenent experiments.

[4] = test system: food intake in food-deprived rats; experiment: Food intake in food-deprived rats (24 h food deprivation); format: in vivo, rat; set-up: concentration or dose not given beside the values; conditions: rats after 24 h food deprivation; two hours after administration of test compound
[5] = target: T4, human α1d receptor (Homo sapiens, UniProt P25100); experiment: Binding to cloned human α1d adrenergic receptor
T4 construct: expressed in transfected cells
T4 sequence (P25100 whole entry): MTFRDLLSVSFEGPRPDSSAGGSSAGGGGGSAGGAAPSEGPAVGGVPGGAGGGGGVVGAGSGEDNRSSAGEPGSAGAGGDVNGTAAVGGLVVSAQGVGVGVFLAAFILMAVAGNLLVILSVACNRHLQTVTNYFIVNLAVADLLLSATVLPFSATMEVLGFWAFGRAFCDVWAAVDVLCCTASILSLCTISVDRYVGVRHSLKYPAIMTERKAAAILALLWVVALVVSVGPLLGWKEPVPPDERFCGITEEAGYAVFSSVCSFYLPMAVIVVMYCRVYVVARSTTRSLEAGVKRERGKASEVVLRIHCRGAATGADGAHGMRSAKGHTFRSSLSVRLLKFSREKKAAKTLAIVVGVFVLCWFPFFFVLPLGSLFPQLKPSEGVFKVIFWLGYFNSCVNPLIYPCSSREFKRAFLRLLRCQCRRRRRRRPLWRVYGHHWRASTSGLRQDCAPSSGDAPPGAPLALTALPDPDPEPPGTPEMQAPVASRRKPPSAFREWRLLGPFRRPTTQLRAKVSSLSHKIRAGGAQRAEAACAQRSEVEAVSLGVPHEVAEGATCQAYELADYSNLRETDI
Excerpt: (§3) α1 Human Adrenergic Receptors: To determine the binding of compounds to human α1 receptors, LM(tk−) cell lines stably transfected with the genes encoding the α1a, α1b, and α1d receptors were used. The nomenclature describing the α1 receptors was changed recently, such that the receptor formerly designated α1a is now designated α1d, and the receptor formerly designated α1c is now designated α1a (ref).

[6] = target: T5, human α1b receptor (Homo sapiens, UniProt P35368); experiment: Binding to cloned human α1b adrenergic receptor
T5 construct: expressed in transfected cells
T5 sequence (P35368 whole entry): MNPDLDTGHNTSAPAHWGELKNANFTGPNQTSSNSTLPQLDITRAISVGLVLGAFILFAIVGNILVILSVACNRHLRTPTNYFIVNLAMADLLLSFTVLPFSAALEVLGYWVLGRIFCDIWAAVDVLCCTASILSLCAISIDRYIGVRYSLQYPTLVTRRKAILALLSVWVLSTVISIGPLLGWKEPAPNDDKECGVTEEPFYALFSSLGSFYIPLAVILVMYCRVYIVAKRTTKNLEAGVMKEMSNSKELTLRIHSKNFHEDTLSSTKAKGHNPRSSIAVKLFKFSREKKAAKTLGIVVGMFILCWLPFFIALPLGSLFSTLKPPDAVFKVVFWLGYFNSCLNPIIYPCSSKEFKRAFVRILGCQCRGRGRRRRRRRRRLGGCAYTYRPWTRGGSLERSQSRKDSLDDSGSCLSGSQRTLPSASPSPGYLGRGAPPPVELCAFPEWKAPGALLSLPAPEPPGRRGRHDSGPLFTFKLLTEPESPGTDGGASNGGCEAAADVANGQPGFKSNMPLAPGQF
Excerpt: as §3

[7] = target: T6, human α2A receptor (Homo sapiens, UniProt P08913); experiment: Binding to cloned human α2A adrenergic receptor ([3H]rauwolscine)
T6 construct: expressed in transfected cells
T6 sequence (P08913 whole entry): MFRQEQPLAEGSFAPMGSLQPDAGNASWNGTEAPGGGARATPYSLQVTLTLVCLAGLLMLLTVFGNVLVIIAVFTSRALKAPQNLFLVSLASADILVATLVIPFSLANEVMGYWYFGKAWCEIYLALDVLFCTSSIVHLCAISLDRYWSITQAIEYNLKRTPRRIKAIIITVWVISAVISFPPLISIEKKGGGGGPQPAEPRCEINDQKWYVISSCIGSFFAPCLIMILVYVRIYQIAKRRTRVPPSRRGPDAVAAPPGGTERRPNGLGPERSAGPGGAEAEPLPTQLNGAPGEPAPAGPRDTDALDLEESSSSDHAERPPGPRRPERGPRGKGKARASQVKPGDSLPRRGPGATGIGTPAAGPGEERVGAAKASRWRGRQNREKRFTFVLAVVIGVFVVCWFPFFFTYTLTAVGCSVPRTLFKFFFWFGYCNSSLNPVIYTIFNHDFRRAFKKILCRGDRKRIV
Experimental: (§4) α2 Human Adrenergic Receptors: To determine the binding of compounds to human α2 receptors, LM(tk−) cell lines stably transfected with the genes encoding the α2A, α2B, and α2C receptors were used. […] Cell lysates were prepared as described below (see Radioligand Dinding to Membrane Suspensions), and suspended in 25 mM glycylglycine buffer (pH 7.6 at room temperature). Equilibrium competition binding assay were performed using [^3H]rauwolscine (0.5 nM), and nonspecific binding was determined by incubation with 10 μM phentolamine.

[8] = target: T7, human α2B receptor (Homo sapiens, UniProt P18089); experiment: Binding to cloned human α2B adrenergic receptor ([3H]rauwolscine)
T7 construct: expressed in transfected cells
T7 sequence (P18089 whole entry): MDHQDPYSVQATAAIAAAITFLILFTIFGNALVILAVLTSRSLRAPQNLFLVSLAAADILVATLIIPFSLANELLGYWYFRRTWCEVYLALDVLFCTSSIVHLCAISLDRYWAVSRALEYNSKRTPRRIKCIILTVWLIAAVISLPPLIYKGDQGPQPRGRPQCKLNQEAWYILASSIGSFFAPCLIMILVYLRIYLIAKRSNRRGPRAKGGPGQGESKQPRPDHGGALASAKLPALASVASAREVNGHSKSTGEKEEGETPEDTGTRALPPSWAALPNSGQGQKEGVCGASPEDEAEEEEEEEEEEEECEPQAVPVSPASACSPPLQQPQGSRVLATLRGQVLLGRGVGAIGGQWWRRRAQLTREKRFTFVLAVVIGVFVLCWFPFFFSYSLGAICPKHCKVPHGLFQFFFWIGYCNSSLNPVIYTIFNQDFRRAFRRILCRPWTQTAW
Experimental: as §4

[9] = target: T8, human dopamine D3 receptor (Homo sapiens, UniProt P35462); experiment: Binding to human dopamine D3 receptor ([3H]spiperone); conditions: cloned human receptor
T8 construct: expressed in transfected cells; host or cells: COS-7 cells, transient
T8 sequence (P35462 whole entry): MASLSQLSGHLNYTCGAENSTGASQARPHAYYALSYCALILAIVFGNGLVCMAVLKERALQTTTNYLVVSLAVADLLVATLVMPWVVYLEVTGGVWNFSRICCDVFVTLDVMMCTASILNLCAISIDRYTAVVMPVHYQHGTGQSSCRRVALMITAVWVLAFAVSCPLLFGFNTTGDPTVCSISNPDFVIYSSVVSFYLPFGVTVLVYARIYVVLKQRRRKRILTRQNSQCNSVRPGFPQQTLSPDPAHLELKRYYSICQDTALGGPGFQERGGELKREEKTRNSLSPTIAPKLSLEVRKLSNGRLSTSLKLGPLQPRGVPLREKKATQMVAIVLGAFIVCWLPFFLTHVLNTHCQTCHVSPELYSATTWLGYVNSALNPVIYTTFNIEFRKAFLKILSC

[10] = target: T9, human 5HT2 receptor (Homo sapiens, UniProt P28223); experiment: Binding to human 5HT2 receptor ([3H]ketanserin); conditions: cloned human receptor
T9 construct: expressed in transfected cells; host or cells: COS-7 cells (DEAE-dextran); the same paragraph also names the deposited line L-NGC-5HT2 (ATCC CRL 10287)
T9 sequence (P28223 whole entry): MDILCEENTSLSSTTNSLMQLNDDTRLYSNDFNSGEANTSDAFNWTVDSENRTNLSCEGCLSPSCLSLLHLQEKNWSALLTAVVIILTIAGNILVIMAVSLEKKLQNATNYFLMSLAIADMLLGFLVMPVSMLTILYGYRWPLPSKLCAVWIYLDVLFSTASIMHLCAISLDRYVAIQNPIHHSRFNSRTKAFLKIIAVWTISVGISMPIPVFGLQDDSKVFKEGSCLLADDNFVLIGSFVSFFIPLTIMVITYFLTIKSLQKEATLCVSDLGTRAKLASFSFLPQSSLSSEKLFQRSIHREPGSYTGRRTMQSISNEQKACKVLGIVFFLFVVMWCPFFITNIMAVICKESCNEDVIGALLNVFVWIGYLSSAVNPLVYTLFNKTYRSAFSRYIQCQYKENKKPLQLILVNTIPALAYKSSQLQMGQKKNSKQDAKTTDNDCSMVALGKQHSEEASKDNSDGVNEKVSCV
Experimental: Human 5HT2 Receptor: The coding sequence of the human 5HT2 receptor was obtained from a human brain cortex cDNA library, and cloned into the cloning site of pCEXV-3 eukaryotic expression vector. […] The pellet was suspended in 50 mM Tris-HCl buffer (pH 7.7 at room temperature) containing 10 mM MgSO4, 0.5mM EDTA, and 0.1% ascorbate. […] Nonspecific binding was defined by the addition of 10 μM mianserin.

[11] = target: T10, human 5HT7 receptor (Homo sapiens, UniProt P34969); experiment: Binding to human 5HT7 receptor; conditions: cloned human receptor
T10 construct: expressed in transfected cells
T10 sequence (P34969 whole entry): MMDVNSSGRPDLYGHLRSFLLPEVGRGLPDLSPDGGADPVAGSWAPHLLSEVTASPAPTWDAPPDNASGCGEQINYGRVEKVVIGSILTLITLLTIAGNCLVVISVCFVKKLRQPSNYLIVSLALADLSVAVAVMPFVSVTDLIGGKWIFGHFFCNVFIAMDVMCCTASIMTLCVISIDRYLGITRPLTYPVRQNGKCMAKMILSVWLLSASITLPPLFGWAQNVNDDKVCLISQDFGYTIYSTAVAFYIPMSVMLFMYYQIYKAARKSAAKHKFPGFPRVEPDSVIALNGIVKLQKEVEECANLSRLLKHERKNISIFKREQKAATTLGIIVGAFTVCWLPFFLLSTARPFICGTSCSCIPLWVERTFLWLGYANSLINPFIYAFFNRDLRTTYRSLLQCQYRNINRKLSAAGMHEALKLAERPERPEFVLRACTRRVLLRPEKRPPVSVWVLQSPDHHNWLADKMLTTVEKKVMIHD
Experimental: Human 5-ET7 Receptor: A LM(tk−) clonal cell line stably transfected with the gene encoding the 5HT7 receptor subtype was prepared as described above.

[12] = target: T11, human 5HT1E receptor (Homo sapiens, UniProt P28566); experiment: Binding to human 5HT1E receptor ([3H]serotonin); conditions: cloned human receptor
T11 construct: expressed in transfected cells
T11 sequence (P28566 whole entry): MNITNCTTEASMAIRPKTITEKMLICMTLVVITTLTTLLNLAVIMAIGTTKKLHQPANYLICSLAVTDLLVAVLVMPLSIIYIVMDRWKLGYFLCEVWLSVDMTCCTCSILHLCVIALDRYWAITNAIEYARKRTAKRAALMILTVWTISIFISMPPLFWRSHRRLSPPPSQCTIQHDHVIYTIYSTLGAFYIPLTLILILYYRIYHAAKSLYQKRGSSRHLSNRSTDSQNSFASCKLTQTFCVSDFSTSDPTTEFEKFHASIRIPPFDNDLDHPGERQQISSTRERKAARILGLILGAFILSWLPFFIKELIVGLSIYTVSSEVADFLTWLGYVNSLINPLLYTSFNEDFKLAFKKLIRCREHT
Experimental: 5HT1Dα, 5HT1Dβ, 5HT1E, 5HT1F Receptors: LM(tk−) clonal cell lines stably transfected with the genes encoding each of these 5HT receptor subtypes were prepared as described above. The cell line for the 5HT1Dα, receptor, designated as Ltk−8-30-84, was deposited on Apr. 17, 1990, and accorded ATCC Accession No. CRL 10421. The cell for the 5HT1Dβ receptor, designated as Ltk−11, was deposited on Apr. 17, 1990, and accorded ATCC Accession No. CRL 10422. The cell line for the 5HT1E receptor, designated 5 HT1E-7, was deposited on Nov. 6, 1991, and accorded ATCC Accession No. CRL 10913. The cell line for the 5HT1F receptor, designated L-5-HT1F, was deposited on Dec. 27, 1991, and accorded ATCC Accession No. ATCC 10957. Membrane preparations comprising these receptors were prepared as described below, and suspended in 50 mM Tris-HCl buffer (pH 7.4 at 37° C.) containing 10 mM MgCl2, 0.2 mM EDTA, 10 μM pargyline, and 0.1% ascorbate. The binding of compounds was determined in competition binding assays by incubation for 30 minutes at 37° C. in the presence of 5 nM [^3H) serotonin. Nonspecific binding was determined in the presence of 10 μM serotonin. The bound radioligand was separated by filtration through GF/B filters using a cell harvester.

[13] = target: T12, human 5HT1Dα receptor (Homo sapiens, UniProt P28221); experiment: Binding to human 5HT1Dα receptor ([3H]serotonin); conditions: cloned human receptor
T12 construct: expressed in transfected cells
T12 sequence (P28221 whole entry): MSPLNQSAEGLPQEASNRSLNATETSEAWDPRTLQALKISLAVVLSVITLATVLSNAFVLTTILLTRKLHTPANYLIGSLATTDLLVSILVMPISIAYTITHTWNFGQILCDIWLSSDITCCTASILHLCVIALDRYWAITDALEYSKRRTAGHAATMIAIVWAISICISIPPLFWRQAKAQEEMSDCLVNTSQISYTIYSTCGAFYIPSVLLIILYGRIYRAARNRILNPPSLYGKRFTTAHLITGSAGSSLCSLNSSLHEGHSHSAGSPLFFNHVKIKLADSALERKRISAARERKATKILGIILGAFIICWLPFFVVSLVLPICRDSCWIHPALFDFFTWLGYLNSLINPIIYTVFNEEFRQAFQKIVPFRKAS
Experimental: 5HT1Dα, 5HT1Dβ, 5HT1E, 5HT1F Receptors: LM(tk−) clonal cell lines stably transfected with the genes encoding each of these 5HT receptor subtypes were prepared as described above. […] Membrane preparations comprising these receptors were prepared as described below, and suspended in 50 mM Tris-HCl buffer (pH 7.4 at 37° C.) containing 10 mM MgCl2, 0.2 mM EDTA, 10 μM pargyline, and 0.1% ascorbate. The binding of compounds was determined in competition binding assays by incubation for 30 minutes at 37° C. in the presence of 5 nM [^3H) serotonin. Nonspecific binding was determined in the presence of 10 μM serotonin.

| SMILES | Ki [1] | Ki [2] | Kb [3] | Two-hour food intake, percentage of intake compared to control rats, Mean (%) [4] | Receptor (pKi) α1d [5] | Receptor (pKi) α1b [6] | Receptor (pKi) α2a [7] | Receptor (pKi) α2b [8] | Receptor (pKi) D3 [9] | Receptor (pKi) 5HT2 [10] | Receptor (pKi) 5HT7 [11] | Receptor (pKi) 5HT1E [12] | Receptor (pKi) 5HT1Dα [13] |
| --- | --- | --- | --- | --- | --- | --- | --- | --- | --- | --- | --- | --- | --- |
| Cl.O=S(=O)(NCC1CCC(CNCC2CCc3ccccc3C2)CC1)c1cccc2ccccc12 (centres unmarked) [Example 32] | 3550 nM | 11 nM | 23 nM | 36% | 6.90 | 7.35 | 6.74 | 6.58 | 6.69 | 6.55 | 6.42 | ≤ 5.30 | 6.04 |
| Cl.O=[N+]([O-])c1ccccc1S(=O)(=O)NCC1CCC(CNCC2CCc3ccccc3C2)CC1 (centres unmarked) [Example 36] | 16000 nM | 8.3 nM | 26 nM | 35% | 7.01 | 7.22 | 7.31 | 6.96 | 6.35 | 5.93 | 6.37 | ≤ 5.30 | 5.94 |
